According to patent US20220362222A1, “ONCE DAILY FORMULATIONS OF TACROLIMUS” (TFF Pharmaceuticals, Inc., priority 2021, published 2022):

Columns and labels:
[1] = Pharmacokinetics of inhaled tacrolimus in healthy volunteers, 1 mg BID repeat dose group (Part B); format: in vivo, human
Procedure: The study is a blinded, randomized, placebo-controlled, multiple dose, dose-escalation study. Part B begins once the first three cohorts of Part A have completed and safety data has been reviewed. Twenty-four (24) healthy adult male and female (women of non-child-bearing potential only) subjects were enrolled. Eight (8) subjects were assigned to each of three dose levels (1.0 mg BID, 0.5 mg BID, or QD dose of either 1.0, 1.5, or 2.0mg, as determined by the SMC at the conclusion of Cohort 2 and after examining the safety and TDM data from that cohort) with six (6) subjects per cohort receiving tacrolimus inhalation and two (2) subjects receiving placebo.
Screening of subjects occurred within 28 days prior to the first dose administered. Study subjects were randomized to receive either a placebo or tacrolimus inhalation powder by inhalation. The subject assignment were blinded to the investigator, study coordinators and study subjects. Subjects were automatically replaced if they discontinue the study prior to dosing. On Day 1, subjects in each cohort begins receiving tacrolimus or placebo administered twice a day (every 12 hours) for Cohorts 1 and 2, and tacrolimus or placebo administered once per day (every 24 hours) for Cohort 3,through the Plastiape® inhaler. Blood samples and safety measurements were performed over 1 week as scheduled. […]
PK parameters for plasma tacrolimus are calculated as follows, as appropriate: AUC0-24: The area under the concentration-time curve, from time 0 to the 24-hour time point, as calculated by the linear trapezoidal method. If the 24-hour plasma concentration is missing, below the limit of quantification or not reportable, then this parameter will not be calculated. AUC0-t: The area under the concentration-time curve, from time 0 to the last observed non-zero concentration, as calculated by the linear trapezoidal method. […] AUC0-inf is calculated as the sum of AUC0-t plus the ratio of the last measurable plasma concentration to the elimination rate constant. […] CL/F Apparent total body clearance after oral administration, calculated as Dose/AUC0-inf. […] Kel: Apparent first-order terminal elimination rate constant calculated from a semi-log plot of the plasma concentration versus time curve. The parameter will be calculated by linear least-squares regression analysis using the maximum number of points in the terminal log-linear phase (e.g., three or more non-zero plasma concentrations). t1/2: Apparent first-order terminal elimination half-life are calculated as 0.693/Kel. Vz/F: Apparent volume of distribution during the terminal elimination phase after oral administration, calculated as […]. […]

[2] = cited from earlier work
[3] = oral administration, cited from earlier work
[4] = inhalation 1 mg BID, healthy volunteers

tacrolimus plasma exposure, actual arithmetic mean ([1]; inhalation 1 mg BID repeat dose, healthy volunteers, preliminary): 45 ng/mL | Cmin (trough) concentrations at 12 h compared with oral PK model [1, 4]: slightly higher than predicted | observed Cmax compared with oral PK model [1, 4]: lower than predicted
SMILES: C=CC[C@@H]1/C=C(\C)C[C@H](C)C[C@H](OC)[C@H]2O[C@@](O)(C(=O)C(=O)N3CCCC[C@H]3C(=O)O[C@H](/C(C)=C/[C@@H]3CC[C@@H](O)[C@H](OC)C3)[C@H](C)[C@@H](O)CC1=O)[C@H](C)C[C@@H]2OC [tacrolimus, (1R,9S,12S,13R,14S,17R,18E,21S,23S,24R,25S,27R)-1,14-dihydroxy-12-[(E)-1-[(1R,3R,4R)-4-hydroxy-3-methoxycyclohexyl]prop-1-en-2-yl]-23 ,25-dimethoxy-13,19,21,27-tetramethyl-17-prop-2-enyl-11,28-dioxa-4-azatricyclo [22.3.1.0^4.8]octacos-18-ene-2,3,10,16-tetrone]
actual trough values at 12 hours post dose compared with simulated exposure ([1]; inhalation 1 mg BID, Day 1 and Day 7): closer to the upper 90% confidence interval for simulated exposure | solubility in water [2]: practically insoluble in water | absorption ([3]; Prograf label): < 25% | variability of absorption (%CV range) ([3]; depending on the study): 28-58%
